# Experimental data: patent US20260199483A1 (Bright Angel Therapeutics Inc., priority 2022, published 2026)
# Key:
# [1] = target: T1, purified recombinant Yck2 (Candida albicans, UniProt A0A1D8PKB4); experiment: HotSpot kinase assay; format: biochemical, C. albicans
# T1 construct: Yck2 residues 37-345 were PCR amplified from C. albicans genomic DNA; His6 (N); TEV protease site (N); made in house; host or cells: E. coli BL21(DE3)-Gold
# Description: IC50s were determined using the in vitro HotSpot kinase assay (purified enzymes, ^33P-ATP, an appropriate substrate and 1 μM ATP). For enzyme inhibition assays, compounds were tested in range of ten concentrations from 10 uM to 0.0005 uM using purified recombinant Yck2. Reaction conditions were 1 uM ATP, one hour incubation with inhibitor, and kinase activity detected using 33-ATP phosphorylation of an appropriately selected peptide substrate.
# Yck2 residues 37-345 were PCR amplified from C. albicans genomic DNA and subcloned into the vector pMCSG53, which codes for a N-terminal His6 tag, TEV protease site, followed by the Yck2 protein. E. coli BL21(DE3)-Gold competent cells were transformed with this plasmid and the Yck2 protein was purified using methodology previously described (Stogios et al., ACS Chem. Biol. 13, 1322-1332 (2018)).
# CaCi2 = experiment: Antifungal sensitivity testing (broth microdilution MIC); format: cell-based; conditions: CaCi2, 96-well broth microdilution, compounds in DMSO
# Description: Minimum inhibitory concentrations (MICs) were determined in flat bottom, 96-well plate format using a modified broth microdilution protocol as previously described (Singh et al., PLoS Pathog. 5, e1000532 (2009); LaFayette et al., PLoS Pathog. 6, 79-80 (2010)). Compounds were formulated in dimethyl sulfoxide (DMSO, Sigma-Aldrich Co.). Each compound was tested in duplicate in at least two independent experiments.
# T1 sequence (A0A1D8PKB4 entry or part of it): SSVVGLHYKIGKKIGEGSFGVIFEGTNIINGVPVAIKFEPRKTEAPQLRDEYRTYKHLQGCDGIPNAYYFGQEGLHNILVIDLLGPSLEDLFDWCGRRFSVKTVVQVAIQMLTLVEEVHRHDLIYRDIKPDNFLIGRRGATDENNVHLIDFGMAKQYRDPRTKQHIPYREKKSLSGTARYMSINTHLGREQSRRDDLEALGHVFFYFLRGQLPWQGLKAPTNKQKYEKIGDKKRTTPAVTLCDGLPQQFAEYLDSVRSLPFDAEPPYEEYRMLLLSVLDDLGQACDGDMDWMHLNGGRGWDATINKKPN
Structure (SMILES),IC50 [1] [nM],MIC50 (CaCi2) [µM]
"Nc1nccc(-c2c(-c3ccc(F)cc3)ncn2C2CCN(C[C@](O)(Cn3cncn3)c3ccc(F)cc3F)CC2)n1 (single isomer, unassigned) [Compound I-33]",12.3,–
"Cn1cc(-c2ccnc3c2C(=O)N(CCC2CCN(C[C@](O)(Cn4cncn4)c4ccc(F)cc4F)CC2)C3)c(-c2ccc(F)cc2)n1 (single isomer, unassigned) [Compound I-248]",4.69,–
"Cn1cc(-c2ccnc3c2C(=O)N(CC(O)(Cn2ccnc2)c2ccc(F)cc2F)C3)c(-c2ccc(F)cc2)n1 (stereo not drawn) [Compound I-1, 6-(2-(2,4-difluorophenyl)-2-hydroxy-3-(1H-imidazol-1-yl)propyl)-4-(3-(4-fluorophenyl)-1-methyl-1H-pyrazol-4-yl)-6,7-dihydro-5H-pyrrolo[3,4-b]pyridin-5-one]",46.3,–
"CN1Cc2nccc(-c3cn(CCC(O)(Cn4cncn4)c4ccc(F)cc4F)nc3-c3ccc(F)cc3)c2C1=O (stereo not drawn) [Compound I-2, 4-(1-(3-(2,4-difluorophenyl)-3-hydroxy-4-(1H-1,2,4-triazol-1-yl)butyl)-3-(4-fluorophenyl)-1H-pyrazol-4-yl)-6-methyl-6,7-dihydro-5H-pyrrolo[3,4-b]pyridin-5-one]",107,–
"Cn1cc(-c2ccncc2CNCCC(O)(Cn2cncn2)c2ccc(F)cc2F)c(-c2ccc(F)cc2)n1 (stereo not drawn) [Compound I-3, 2-(2,4-difluorophenyl)-4-(((4-(3-(4-fluorophenyl)-1-methyl-1H-pyrazol-4-yl)pyridin-3-yl)methyl)amino)-1-(1H-1,2,4-triazol-1-yl)butan-2-ol]",179,–
"Cn1cc(-c2ccncc2CNC2CCN(CC(O)(Cn3cncn3)c3ccc(F)cc3F)CC2)c(-c2ccc(F)cc2)n1 (stereo not drawn) [Compound I-4, 2-(2,4-difluorophenyl)-1-(4-(((4-(3-(4-fluorophenyl)-1-methyl-1H-pyrazol-4-yl)pyridin-3-yl)methyl)amino)piperidin-1-yl)-3-(1H-1,2,4-triazol-1-yl)propan-2-ol]",178,–
"Cn1cc(-c2ccncc2CNCC(O)(Cn2cncn2)c2ccc(F)cc2F)c(-c2ccc(F)cc2)n1 (stereo not drawn) [Compound I-5, 2-(2,4-difluorophenyl)-1-(((4-(3-(4-fluorophenyl)-1-methyl-1H-pyrazol-4-yl)pyridin-3-yl)methyl)amino)-3-(1H-1,2,4-triazol-1-yl)propan-2-ol]",335,–
"Cn1cc(-c2ccnc3c2C(=O)N(CC(O)(Cn2cncn2)c2ccc(F)cc2F)C3)c(-c2ccc(F)cc2)n1 (stereo not drawn) [Compound I-6, 6-(2-(2,4-difluorophenyl)-2-hydroxy-3-(1H-1,2,4-triazol-1-yl)propyl)-4-(3-(4-fluorophenyl)-1-methyl-1H-pyrazol-4-yl)-6,7-dihydro-5H-pyrrolo[3,4-b]pyridin-5-one]",72.7,–
"Nc1nccc(-c2c(-c3ccc(F)cc3)ncn2C2CCN(CC(O)(Cn3cncn3)c3ccc(F)cc3F)CC2)n1 (stereo not drawn) [Compound I-32, 1-(4-(5-(2-aminopyrimidin-4-yl)-4-(4-fluorophenyl)-1H-imidazol-1-yl)piperidin-1-yl)-2-(2,4-difluorophenyl)-3-(1H-1,2,4-triazol-1-yl)propan-2-ol]",–,> 50
"Nc1nccc(-c2c(-c3ccc(F)cc3)ncn2C2CCN(CC(O)(Cn3ccnn3)c3ccc(F)cc3F)CC2)n1 (stereo not drawn) [Compound I-35, 1-(4-(5-(2-aminopyrimidin-4-yl)-4-(4-fluorophenyl)-1H-imidazol-1-yl)piperidin-1-yl)-2-(2,4-difluorophenyl)-3-(1H-1,2,3-triazol-1-yl)propan-2-ol]",6.8,–
"Nc1nccc(-c2c(-c3ccc(F)cc3)ncn2C2CCN(CC[C@](O)(Cn3cncn3)c3ccc(F)cc3F)CC2)n1 [Compound I-53, (R)-4-(4-(5-(2-aminopyrimidin-4-yl)-4-(4-fluorophenyl)-1H-imidazol-1-yl)piperidin-1-yl)-2-(2,4-difluorophenyl)-1-(1H-1,2,4-triazol-1-yl)butan-2-ol]",9.52,–
"Nc1nccc(-c2c(-c3ccc(F)cc3)ncn2C2CCN(CC[C@@](O)(Cn3cncn3)c3ccc(F)cc3F)CC2)n1 [Compound I-55, (S)-4-(4-(5-(2-aminopyrimidin-4-yl)-4-(4-fluorophenyl)-1H-imidazol-1-yl)piperidin-1-yl)-2-(2,4-difluorophenyl)-1-(1H-1,2,4-triazol-1-yl)butan-2-ol]",8.41,–
"Nc1nccc(-c2c(-c3ccc(F)cc3)ncn2C2CCN(CC(=O)NCC(O)(Cn3cncn3)c3ccc(F)cc3F)CC2)n1 (stereo not drawn) [Compound I-71, 2-(4-(5-(2-aminopyrimidin-4-yl)-4-(4-fluorophenyl)-1H-imidazol-1-yl)piperidin-1-yl)-N-(2-(2,4-difluorophenyl)-2-hydroxy-3-(1H-1,2,4-triazol-1-yl)propyl)acetamide]",9.33,–
"Nc1nccc(-c2c(-c3ccc(F)cc3)ncn2C2CCN(C(=O)CCNCC(O)(Cn3cncn3)c3ccc(F)cc3F)CC2)n1 (stereo not drawn) [Compound I-77, 1-(4-(5-(2-aminopyrimidin-4-yl)-4-(4-fluorophenyl)-1H-imidazol-1-yl)piperidin-1-yl)-3-((2-(2,4-difluorophenyl)-2-hydroxy-3-(1H-1,2,4-triazol-1-yl)propyl)amino)propan-1-one]",0.4,–
"O=C(NCC(O)(Cn1cncn1)c1ccc(F)cc1F)c1cccc2c(-c3ccncc3)c(-c3ccc(F)cc3)nn12 (stereo not drawn) [Compound I-151, N-(2-(2,4-difluorophenyl)-2-hydroxy-3-(1H-1,2,4-triazol-1-yl)propyl)-2-(4-fluorophenyl)-3-(pyridin-4-yl)pyrazolo[1,5-a]pyridine-7-carboxamide]",765,–
"OC(CNCc1ccc2c(-c3ccncc3)c(-c3ccc(F)cc3)nn2c1)(Cn1cncn1)c1ccc(F)cc1F (stereo not drawn) [Compound I-152, 2-(2,4-difluorophenyl)-1-(((2-(4-fluorophenyl)-3-(pyridin-4-yl)pyrazolo[1,5-a]pyridin-6-yl)methyl)amino)-3-(1H-1,2,4-triazol-1-yl)propan-2-ol]",3.37,–
"Cn1cc(-c2ccncc2COCCC(O)(Cn2cncn2)c2ccc(F)cc2F)c(-c2ccc(F)cc2)n1 (stereo not drawn) [Compound I-233, 2-(2,4-difluorophenyl)-4-((4-(3-(4-fluorophenyl)-1-methyl-1H-pyrazol-4-yl)pyridin-3-yl)methoxy)-1-(1H-1,2,4-triazol-1-yl)butan-2-ol]",65.9,–
"Nc1nccc(-c2c(-c3ccc(F)cc3)ncn2C2CCN(CCC(=O)NC3CCN(CC(O)(Cn4cncn4)c4ccc(F)cc4F)CC3)CC2)n1 (stereo not drawn) [Compound I-234, 3-(4-(5-(2-aminopyrimidin-4-yl)-4-(4-fluorophenyl)-1H-imidazol-1-yl)piperidin-1-yl)-N-(1-(2-(2,4-difluorophenyl)-2-hydroxy-3-(1H-1,2,4-triazol-1-yl)propyl)piperidin-4-yl)propanamide]",8.12,–
"Cn1cc(-c2ccncc2COCC[C@](O)(Cn2cncn2)c2ccc(F)cc2F)c(-c2ccc(F)cc2)n1 [Compound I-235, (R)-2-(2,4-difluorophenyl)-4-((4-(3-(4-fluorophenyl)-1-methyl-1H-pyrazol-4-yl)pyridin-3-yl)methoxy)-1-(1H-1,2,4-triazol-1-yl)butan-2-ol]",107,–
"Cn1cc(-c2ccnc3c2C(=O)N(CC2CCN(C[C@@](O)(Cn4cncn4)c4ccc(F)cc4F)CC2)C3)c(-c2ccc(F)cc2)n1 [Compound I-237, (R)-6-((1-(2-(2,4-difluorophenyl)-2-hydroxy-3-(1H-1,2,4-triazol-1-yl)propyl)piperidin-4-yl)methyl)-4-(3-(4-fluorophenyl)-1-methyl-1H-pyrazol-4-yl)-6,7-dihydro-5H-pyrrolo[3,4-b]pyridin-5-one]",1.14,–
"O[C@](CNCc1ccc2c(-c3ccncc3)c(-c3ccc(F)cc3)nn2c1)(Cn1cncn1)c1ccc(F)cc1F [Compound I-252, (R)-2-(2,4-difluorophenyl)-1-(((2-(4-fluorophenyl)-3-(pyridin-4-yl)pyrazolo[1,5-a]pyridin-6-yl)methyl)amino)-3-(1H-1,2,4-triazol-1-yl)propan-2-ol]",2.07,–
"OC(CN1CCC(NCc2ccc3c(-c4ccncc4)c(-c4ccc(F)cc4)nn3c2)CC1)(Cn1cncn1)c1ccc(F)cc1F (stereo not drawn) [Compound I-254, 2-(2,4-difluorophenyl)-1-(4-(((2-(4-fluorophenyl)-3-(pyridin-4-yl)pyrazolo[1,5-a]pyridin-6-yl)methyl)amino)piperidin-1-yl)-3-(1H-1,2,4-triazol-1-yl)propan-2-ol]",3.09,–
"[2H]C([2H])(NCC(O)(Cn1cncn1)c1ccc(F)cc1F)c1ccc2c(-c3ccncc3)c(-c3ccc(F)cc3)nn2c1 (stereo not drawn) [Compound I-261, 2-(2,4-difluorophenyl)-1-(((2-(4-fluorophenyl)-3-(pyridin-4-yl)pyrazolo[1,5-a]pyridin-6-yl)methyl-d2)amino)-3-(1H-1,2,4-triazol-1-yl)propan-2-ol]",–,0.195
"OC(Cn1cncn1)(c1ccc(F)cc1F)C(F)(F)c1ccc(-c2ccc(CNCc3ccc4c(-c5ccncc5)c(-c5ccc(F)cc5)nn4c3)cc2)cn1 (stereo not drawn) [Compound I-262, 2-(2,4-difluorophenyl)-1,1-difluoro-1-(5-(4-((((2-(4-fluorophenyl)-3-(pyridin-4-yl)pyrazolo[1,5-a]pyridin-6-yl)methyl)amino)methyl)phenyl)pyridin-2-yl)-3-(1H-1,2,4-triazol-1-yl)propan-2-ol]",–,0.293
